The results in this text go back to patent US12624123B2, “Compositions and methods for reducing off-target toxicity of antibody drug conjugates” (The Research Foundation for The State University of New York, priority 2019, dated 2026).

One data set deals with LS174T cells. As to the kind of experiment: Competitive cell cytotoxicity assay with LS174T cells. In kind it is cell-based. How it is done: Log-phase MOLM-14, Ramos (RA 1), HT-29, LS174T, or NCI-N87 cells were seeded in 96-well microtiter plates at a density of 20,000 cells/well, 20,000 cells/well, 5,000 cells/well, 5,000 cells/well, and 10,000 cells/well, respectively, in 100 μL of culture medium. HT-29, LS174T, and NCI-N87 cells were allowed to adhere for 24 h before cell culture media was aspirated and replaced with 100 μL of fresh media containing a range of treatment for, 48 (LS174T), 96 (NCI-N87), or 120 (HT-29) h. MOLM-14 and Ramos cells were re-suspended with treatment solutions, where 100 μL of cell-treatment suspension was aliquoted into wells of a 96-well plate for 24 h. Treatment solutions consisted of calicheamicin, MMAE, topotecan, or SN38 with or without immunized animal plasma, purified anti-drug antibody, or antibody-drug conjugate (ADC) with or without plasma or anti-drug antibody. For MOLM-14 and Ramos cells, 25 μL of MTT solution (5 mg/mL in pH 7.4 1× PBS) was added directly to wells following treatment incubation. For adherent cells, treatment media was aspirated from wells and cells were washed three times with 100 μL of fresh media. Following the final wash, 100 μL of complete media and 25 μL of MTT solution were added to each well. Cells were incubated for 4 h in order to allow cells to reduce MTT to formazan dye. […] Formazan dye was measured at 570 nm and normalized by cell debris at 690 nm.

The subject of another data set is 8C2 mAb. The experiment in a line: Competitive ELISA of 8C2 with topotecan and SN38 (BSA-topotecan coated). In kind it is binding, murine. The following applies: 8C2 held constant at 10 nM; read-out: IC50 in competitive ELISA vs intact 8C2. How it is done: A competitive ELISA was employed to determine the affinity of intact 8C2 mAb for SN38 and topotecan. A BSA-topotecan conjugate was synthesized and immobilized as previously described (Shah et al., Int J Pharm. 2014; 465(1-2):228-238. doi:10.1016/j.ijpharm.2014.01.038) 8C2 concentration was held constant at 10 nM with increasing concentrations of topotecan or SN38. 8C2 drug samples were incubated for 2 hours at room temperature with agitation. Following incubation, wells were washed three times with 250 μL of PBS-T and three times with dH2O. Wells were then incubated with a 1:500 dilution anti-mouse AP conjugate secondary in PBS-T with 3% BSA for 1 h. After washing, 250 μL of 4 mg/ml PNPP in diethanolamine buffer pH 9.8 with absorbance being read at 405 nm. The change in absorbance over time data was fit to a four-parameter function in GraphPad Prism 7.
Background: In an ELISA, binding on a coated surface is turned into a signal by an enzyme label.

Another data set deals with MOLM-14 cells. The experiment in a line: MTT cytotoxicity of calicheamicin on MOLM-14 cells. In kind it is cell-based, human. The following applies: 24 h, 100 μM peptide or sdAb. How it is done: (§1) Log-phase MOLM-14, Ramos (RA 1), HT-29, LS174T, or NCI-N87 cells were seeded in 96-well microtiter plates at a density of 20,000 cells/well, 20,000 cells/well, 5,000 cells/well, 5,000 cells/well, and 10,000 cells/well, respectively, in 100 μL of culture medium. HT-29, LS174T, and NCI-N87 cells were allowed to adhere for 24 h before cell culture media was aspirated and replaced with 100 μL of fresh media containing a range of treatment for, 48 (LS174T), 96 (NCI-N87), or 120 (HT-29) h. MOLM-14 and Ramos cells were re-suspended with treatment solutions, where 100 μL of cell-treatment suspension was aliquoted into wells of a 96-well plate for 24 h. Treatment solutions consisted of calicheamicin, MMAE, topotecan, or SN38 with or without immunized animal plasma, purified anti-drug antibody, or antibody-drug conjugate (ADC) with or without plasma or anti-drug antibody. For MOLM-14 and Ramos cells, 25 μL of MTT solution (5 mg/mL in pH 7.4 1× PBS) was added directly to wells following treatment incubation. For adherent cells, treatment media was aspirated from wells and cells were washed three times with 100 μL of fresh media. Following the final wash, 100 μL of complete media and 25 μL of MTT solution were added to each well. Cells were incubated for 4 h in order to allow cells to reduce MTT to formazan dye. Once MTT was reduced, 100 μL of 10% SDS prepared in 0.01 M HCl was added to each well and incubated overnight to solubilize the formazan crystals. Formazan dye was measured at 570 nm and normalized by cell debris at 690 nm.
(§2) Fresh media containing a range of treatment were pre-incubated with or without 100 μM purified sdAb at room temperature for 30 minutes. Log-phase MOLM-14 cells were seeded in 96-well microtiter plates at a density of 20,000 cells/well, and were re-suspended with treatment solutions, where 100 μL of cell-treatment suspension was aliquoted into wells of a 96-well plate for 24 h. 25 μL of MTT solution (5 mg/mL in pH 7.4 1× PBS) was added directly to wells following treatment incubation. […] Formazan dye was measured at 570 nm and normalized by cell debris at 690 nm.

Another data set deals with Ramos cells. The experiment in a line: MTT cytotoxicity of calicheamicin on Ramos cells. The data set is classed as cell-based. The following applies: 24 h, calicheamicin alone. How it is done:
as §1, §2

The test system of a further data set is Trastuzumab deruxtecan. As to the kind of experiment: Indirect ELISA of purified sdAb on trastuzumab deruxtecan. The data set is classed as binding. An excerpt: FIG. 16. SDS-PAGE and Indirect ELISA.
FIG. 18. SDS-PAGE and Indirect ELISA.

A short description of data set [1]: SPR dissociation screening on DM1-Biotin chip. The data set is classed as binding. The following applies: 20 min dissociation phase. How it is done: Preliminary screening of DM1/4 binders were performed using a neutravidin SPR chip with DM1-Biotin on the left channel. Phagemid purified sdAbs were flowed over the SPR chip for 2 minutes at a flow rate of 25 ul/min. After binding, sdAb was dissociated for 20 minutes. Observed sensorgrams were fit to an individual dissociation rate constant for each construct. Equilibrium and kinetic binding of 3A2 was assessed using a CM5 SPR chip with TDM1 immobilized on the left channel. […] Rate constants for 3A2-TDM1 association and dissociation were obtained through fitting of the observed sensorgrams for the 1.25, 2.5, 5, 7.5 and 10 nM injections to a 1:1 Langmuir binding model.

The subject of another data set is NCI-N87 cells. As to the kind of experiment: Cell cytotoxicity with exatecan and trastuzumab deruxtecan, NCI-N87 cells. In kind it is cell-based. Conditions: NCI-N87 cells, ADC with 8C2 mAb or Fab. How it is done: Cells were incubated with the drug mixture for 24 hours at 37° C., 5% CO2. After incubation drug containing cell culture media was aspirated and 250 μL of fresh RPMI was added, allowing cells to grow for another 4 days. Then cell culture media was aspirated and 125 μL of RPMI with a final concentration of 1 mg/ml MTT was added followed by a four-hour incubation. MTT crystals were dissolved in 0.01 M HCL/10% SDS overnight at 37° C. followed by absorbance reading at 570 nm (corrected to 640 nm).

As usually defined, the IC50 is the concentration at which inhibition is half-maximal.

Values joined by “and” are separate entries in the source; they are usually repeats but may differ in a detail not shown here. Identical values can stand only once. “Also recorded” adds a separate entry of the source.

`CC[C@@]1(O)C(=O)OCc2c1cc1n(c2=O)Cc2cc3c(CN(C)C)c(O)ccc3nc2-1` [topotecan, reference compound]: the “topotecan concentration at which significant cell death was observed” value in the data set on LS174T cells (absence of 8C2 or 8C2 scFv) amounted to 2.5 nM. Further, in the data set with 8C2 mAb, the IC50 stood at 9.3 nM.

Turning to “anti-calicheamicin peptide HSWHWPSWWAGGGGGS (SEQ ID NO:1) [C2]”, in the data set on MOLM-14 cells, the “fold change of calicheamicin IC50” value came to 5.69 fold.

With “anti-calicheamicin peptide SWWFPQWMAQYPGGGS (SEQ ID NO:2) [C9]”, in the data set with MOLM-14 cells, the “fold change of calicheamicin IC50” value is reported as 3.56 fold.

calicheamicin: the half-inhibitory concentration (IC50) in the data set on Ramos cells was 2.5 nM and 2.98 nM; with Ramos cells (listed as Calicheamicin) it was 2.5 ± 0.224 nM.

B1: TA2 (protein)
VHH: QVQLQESGGGLVQPGGSLRVSCAASGFTFSSYYMSWVRQAPGKGLEWVSAINTGTGSTYYADSVKGRFTISSDNAKNTVYLQMSSLKPEDTALYYCARSSLEGRVEKPYDYWGQGTQVTVSS
modifications: TA2 clone
Consider B1, for which, in the data set on Trastuzumab deruxtecan, the “binding to trastuzumab deruxtecan” value is given as “concentration-dependent binding”.

B2: DT3B3 (protein)
VHH: EVQLVESGGGLVQAGGSLRLSCALSGGTLRSYTMGWIRQAPGKEREFVAGNRWSGGRTYYADSVKGRFTISGDNAENTVYLQMNSLKPEDTAVYYCTADVTEYGEDSSAYWGRGTQVTVSS
modifications: DT3B3
With B2, in data set [1], the dissociation kinetics entry is listed as “longest dissociation rates; also recorded: longer dissociation rates”.

B3: 8C2 Fab: Fab of 8C2 by papain digestion; heavy SEQ ID NO:4, light SEQ ID NO:5 (antibody)
heavy: MKCSWVIFFLMAVVTGVNSEEVQLQQSGAELVKPGASVKLSCTASGFNIKDTYIHWVKQRPEQGLEWIGMIDLANDNTKYDPKFQGKATIITDTSSNKAYLQVSSLTSEDTAVYYCATWGAIITLGGWGQGTLVTVSAAKTTPPSVYPLAPGSAAQTNSMVTLGCLVKGYFPEPVTVTWNSGSLSSGVHTFPAVLQSDLYTLSSSVTVPSSTWPSETVTCNVAN
light: MSVLTQVLALLLLWLTGARCDIQMTQSPASLSASVGETVTITCRASGNIHNSLAWYQQIKGRSPQLLVYNAKTLADGVPSRFSGSGSGTQYSLKINSLHPEDFGSYYCQHFWSTPFTFGSGTKLEIKRADAAPTVSIFPPSSEQLTSGGASVVCFLNNFYPKDINVKWKIDGSEERQNGVLNSWTDQDSKDSTYSMSSTLTLTKD
modifications: 8C2 Fab heavy chain; 8C2 Fab light chain
As for B3, in the data set on NCI-N87 cells, the “effect on trastuzumab deruxtecan cytotoxicity” value is “did not prevent cell death; also recorded: does not significantly alter”.

B4: TF7 (protein)
chain: QVQLQESGGGLAQPGGSLRVSCATSGFTFSSNYYISWVRQAPGRGLEWVSAINTGDGSTYYAHSVKGRFTISRDNAKNTLYLQMNSLKPEDTALYYCARSSLEGRIEKPYDYWGQGTQVTVSS
modifications: TF7 clone
As to B4, the “binding to trastuzumab deruxtecan” value with Trastuzumab deruxtecan is recorded as “concentration-dependent binding”.

B5: 8C2 scFv (protein)
scFv: EVQLQQSGAELVKPGASVKLSCTASGFNIKDTYIHWVKQRPEQGLEWIGMIDLANDNTKYDPKFQGKATIITDTSSNKAYLQVSSLTSEDTAVYYCATWGAIITLGGWGQGTLVTVSAAKGGGGSGGGGSGGGGSGGGGSDIQMTQSPASLSASVGETVTITCRASGNIHNSLAWYQQIKGRSPQLLVYNAKTLADGVPSRFSGSGSGTQYSLKINSLHPEDFGSYYCQHFWSTPFTFGSGTKLEIKRENLYFQG
modifications: 8C2 scFv
In the case of B5, the “effect on topotecan cytotoxicity” value with LS174T cells (topotecan with 8C2 mAb or scFv) is “right-shifted; also recorded: increased the viability”.

B6: DT3H3 (protein)
VHH: EVQLVESGGGLVQPGGSLRLSCAASGRTFSHDHMGWFRQAPGKEREFVAAISWTSSTYYGDSVKGRFTISRSNAKNTVYLQMNSLKPEDTAIYYCSWGVGYWGQGTQVTVSS
For the molecule B6, the dissociation kinetics result in data set [1] is “longest dissociation rates; also recorded: longer dissociation rates”.
